We go through 14 molecules from patent publication US4153729A, “Therapeutically useful cysteinol and homocysteinol derivatives” (Recherches Pharmaceutiques et Scientifiques, priority 1977, dated 1979).

Counter-ions that a name gives are not always drawn.

Series [1] is described as follows: Oral LD 50 determined according to the method of Karber and Behrens on mice. Conditions: mouse, in vivo, female mice 24 to 26 g, read-out: LD 50 per os. On the procedure: The products of the invention are hardly toxic.
The oral LD 50 (see the table below) was determined according to the method of Karber and Behrens (Arch. Exp. Pathol. Pharm. 177, 1935, page 379) on mice EVIC CEBA .female. Swiss EOPS NMRI Han of 24 to 26 g weight.

In series [2] the test system is rats. Briefly: Hypolipemic activity: hyperlipidemia experimentally induced by Triton in rats. It is filed as in vivo. The conditions noted are these: 18 h after i.v. Triton; for Hypolipemic activity, percentages of diminution: Cholesterol / Hypolipemic activity, percentages of diminution: Triglycerides / Hypolipemic activity, percentages of diminution: total lipids / Hypolipemic activity, percentages of diminution: β-lipoprotein: single p.o. dose mg/kg: clofibrate 225, Ex 1, 2: 500, Ex 3: 270, Ex 4: 127, Ex 5: 175, Ex 6: 310, Ex 12: 250, Ex 13: 140, Ex 14: 95; for Hypolipemic activity, percentages of diminution: optical serum density: serum at 691 nanometres, single p.o. dose mg/kg: Ex 1, 2: 500, Ex 3: 270, Ex 4: 127, Ex 5: 175, Ex 6: 310, Ex 12: 250, Ex 13: 140, Ex 14: 95. More on the design: key: NS: non-significant result. The procedure: The technique used to show these properties has been described by M. Friedman and S. E. Byers in : J. Exptl. Med. 97, 117, 1953 and likewise by S. Garattini and colleagues in Arzneim. Forsch. 9, 206, 1959.
The rats received intravenously 0.3 ml per 100 grams of body weight of a solution of Triton 13 39 at 10%. The products to be tested are administered simultaneously orally at a dose corresponding to a tenth of their LD 50, determined orally in mice, without the dose used exceeding 500 mg/kg.
Eighteen hours after the injection of Triton the animals are sacrificed by section of the carotid and the blood is collected to determined the lipid parameters : cholesterol (auto-analyser Technicon AA II Lieberman Burchard), beta- lipoproteins, (Burnstein), total lipids (Chabrol and Charonnat), triglycerides (Boehringer enzymatic).
The optical density of the serum at 691 nanometres is measured in each case. Each product was tested on ten animals. The statistic calculations were carried out on the averages affected by their divergence from the average using the Student test.
The reference compound used is clofibrate.

The nature of series [3]: Solubility of the isolated product. It is filed as physicochemical. Conditions: in words.

Consider `NC(CO)CCSCCCCCCCCCCSCCC(N)CO` (centres unmarked) [Example 14, 2,19-diamino-5,16-dithia-1,20-eicosanediol], for which the LD50 in series [1] was determined as 950 mg/kg. In series [2], the “Hypolipemic activity, percentages of diminution: Cholesterol” value is “NS”; the “Hypolipemic activity, percentages of diminution: Triglycerides” value is listed as “NS”; the “Hypolipemic activity, percentages of diminution: total lipids” value is “NS”; the “Hypolipemic activity, percentages of diminution: optical serum density” value is given as “NS”. Moreover, the solubility result in series [3] is “soluble in water and alcohols”.
As for `NC(CO)CSCCCCCCCCSCC(N)CO` (centres unmarked) [Example 4, 2,15-diamino-4,13-dithia-1,16-hexadecanediol], the LD50 in series [1] was 1280 mg/kg. The “Hypolipemic activity, percentages of diminution: total lipids” value in series [2] was “NS”. The solubility result in series [3] is reported as “soluble in water, alcohols, ether”.
Regarding `NC(CO)CCSCCCCCCCCSCCC(N)CO` (centres unmarked) [Example 13, 2,17-diamino-5,14-dithia-1,18-octadecanediol], the LD50 in series [1] is 1400 mg/kg. Moreover, in series [3], the solubility entry was “soluble in water and alcohols”.
As for `NC(CO)CCSCCCCCCSCCC(N)CO` (centres unmarked) [Example 12, 2,15-diamino-5,12-dithia-1,16-hexadecanediol], in series [1], the LD50 was determined as 2500 mg/kg. In series [2], the “Hypolipemic activity, percentages of diminution: Cholesterol” value was “NS”; the “Hypolipemic activity, percentages of diminution: Triglycerides” value is “NS”; the “Hypolipemic activity, percentages of diminution: total lipids” value is “NS”; the “Hypolipemic activity, percentages of diminution: optical serum density” value is recorded as “NS”. The solubility result in series [3] was “soluble in water and alcohols”.
For the molecule `NC(CO)CSCSCC(N)CO` (centres unmarked) [Example 1, 2,8-diamino-4,6-dithia-1,9-nonanediol], the LD50 in series [1] was over 5000 mg/kg. Moreover, in series [2], the “Hypolipemic activity, percentages of diminution: Triglycerides” value is reported as “NS”; the “Hypolipemic activity, percentages of diminution: total lipids” value was “NS”; the “Hypolipemic activity, percentages of diminution: β-lipoprotein” value was “NS”; the “Hypolipemic activity, percentages of diminution: optical serum density” value was “NS”. In addition, the solubility result in series [3] is “soluble in the cold in water, alcohol, ether”.
In the case of `NC(CO)CCSCCSCCC(N)CO` (centres unmarked) [Example 9, neutral oxalate of 2,11-diamino-5,8-dithia-1,12 dodecanediol], the solubility entry in series [3] is “soluble in water and alcohols”.
Same read-out and setting: under `NC(CO)CCSCCCCSCCC(N)CO` (centres unmarked) [Example 10, mandelate of 2,13-diamino-5,10-dithia-1,14-tetradecanediol] stands “soluble in water, alcohols and dimethylformamide”.
In the case of `NC(CO)CSSCC(N)CO` (centres unmarked) [Example 6, 2,7-diamino-4,5-dithia-1,8-octanediol], the LD50 in series [1] is 3100 mg/kg. The solubility entry in series [3] is “soluble in water, methanol, ethanol”.
Consider `NC(CO)CCSCSCCC(N)CO` (centres unmarked) [Example 8, neutral oxalate of 2,10-diamino-5,7-dithia-1,11 undecanediol], for which the solubility entry in series [3] is “Soluble in water and alcohols”.
For `CCOC(=O)C(C)(C)Oc1ccc(Cl)cc1` [Clofibrate, reference compound], in series [1], the LD50 came out at 2300 mg/kg.
`NC(CO)CSCCCCCCCCCCSCC(N)CO` (centres unmarked) [Example 5, 2,17-diamino-4,15-dithia-1,18-octadecanediol]: the LD50 in series [1] was 1750 mg/kg. In addition, in series [2], the “Hypolipemic activity, percentages of diminution: total lipids” value is recorded as “NS” and the “Hypolipemic activity, percentages of diminution: β-lipoprotein” value is given as “NS”.
Regarding `NC(CO)CSCCCCCCSCC(N)CO` (centres unmarked) [Example 3, 2,13-diamino-4,11-dithia-1,14-tetradecanediol], the LD50 in series [1] came out at 2700 mg/kg. For the same molecule, the solubility entry in series [3] is reported as “soluble in water, alcohols, ether”.
Take `NC(CO)CSCCCCSCC(N)CO` (centres unmarked) [Example 2, 2,11-diamino-4,9-dithia-1,12-dodecanediol]: the LD50 in series [1] came out at 5000 mg/kg. For the same molecule, in series [2], the “Hypolipemic activity, percentages of diminution: Cholesterol” value was “NS”; the “Hypolipemic activity, percentages of diminution: total lipids” value is recorded as “NS”; the “Hypolipemic activity, percentages of diminution: β-lipoprotein” value is “NS”; the “Hypolipemic activity, percentages of diminution: optical serum density” value is listed as “NS”. Also, the solubility result in series [3] is given as “soluble in water, alcohols, ether”.
Turning to `NC(CO)CCSCCCCCSCCC(N)CO` (centres unmarked) [Example 11, mandelate of 2,14-diamino-5,11-dithia-1,15-pentadecanediol], the solubility entry in series [3] is given as “Soluble in water, alcohols, DMF”.
